This note sets out measurements from US8507464B2, “Phosphoramidate alkylator prodrugs” (Threshold Pharmaceuticals, Inc., priority 2005, dated 2013).

The subject of the test is NCI-H460 cells. Nature of the test: Antiproliferation assay (Alamar Blue), anoxia vs air.
The mark [1] stands for this setting: Homo sapiens, NCI-H460, 2 h, read-out: IC50 H460 Air, air, 2 h exposure.
[2] abbreviates: Homo sapiens, NCI-H460, 2 h, read-out: IC50 H460 Anoxia, anoxia, 2 h exposure.
The mark [3] stands for this setting: read-out: IC50 H460 Air, air, 2 h exposure.
Setting [4] is: read-out: IC50 H460 Anoxia, anoxia, 2 h exposure.

Like-named read-outs stand apart in the source and are kept apart here.

As for `Cn1c(COP(=O)(N2CC2)N2CC2)cnc1[N+](=O)[O-]` [Compound 28], the concentration for half-maximal inhibition (IC50) amounted to 20 µM under setting [1] and 0.15 µM under setting [2].
The corresponding values for `Cn1c(COc2ccc(COP3(=O)N(CCCl)CCCN3CCCl)cc2F)cnc1[N+](=O)[O-]` [Compound 33] are 46 µM and 8 µM.
With `C[C@H](CCl)NP(=O)(N[C@H](C)CCl)OCc1ccc([N+](=O)[O-])s1` [Compound 39], the half-maximal inhibitory concentration (IC50) worked out at 5 µM (read-out: IC50 H460 Air) and 0.2 µM (read-out: IC50 H460 Anoxia).
In the case of `C[C@@H](CCl)NP(=O)(N[C@@H](C)CCl)OCc1ccc([N+](=O)[O-])s1` [Compound 41], the concentration for half-maximal inhibition (IC50) (read-out: IC50 H460 Air) worked out at 7 µM.
For `C[C@@H](CCl)NP(=O)(N[C@@H](C)CCl)OCc1ccc([N+](=O)[O-])o1` [Compound 42], the IC50 under setting [1] came out at 9 µM and the IC50 under setting [2] worked out at 0.5 µM.
The corresponding values for `CC(C)[C@H](CCl)NP(=O)(N[C@@H](CCl)C(C)C)OCc1ccc([N+](=O)[O-])o1` [Compound 43] are 60 µM and 2 µM.
On to `CC(C)[C@H](CCl)NP(=O)(N[C@@H](CCl)C(C)C)OCc1cnc([N+](=O)[O-])n1C` [Compound 45], for which the IC50 under setting [1] is above 100 µM and the IC50 under setting [2] was 6 µM.
As for `CC(C)[C@@H](CCl)NP(=O)(N[C@H](CCl)C(C)C)OCc1cnc([N+](=O)[O-])n1C` [Compound 48], under setting [1], the IC50 is above 100 µM.
As for `CC(C)[C@H](CCl)NP(=O)(N[C@@H](CCl)C(C)C)OCc1ccc(OCc2cnc([N+](=O)[O-])n2C)c(F)c1` [Compound 49], the IC50 (read-out: IC50 H460 Air) is above 100 µM.
On to `C[C@H](CCl)NP(=O)(N[C@H](C)CCl)OCc1ccc(-c2ccc([N+](=O)[O-])o2)cc1` [Compound 57], for which the IC50 (read-out: IC50 H460 Anoxia) is 14 µM.
With `O=[N+]([O-])c1ccc(C#Cc2ccc(COP(=O)(NCCBr)NCCBr)cc2)s1` [Compound 58], the half-maximal inhibitory concentration (IC50) under setting [1] is 10 µM and the half-maximal inhibitory concentration (IC50) under setting [2] was found to be 5 µM.
With `CC(OP(=O)(NCCBr)NCCBr)c1ccc(-c2ccc([N+](=O)[O-])s2)cc1` (stereo not drawn) [Compound 59], the half-maximal inhibitory concentration (IC50) turned out to be 6 µM under setting [1] and 2 µM under setting [2].
On the same counts, the results for `COc1cc(C(C)OP(=O)(NCCBr)NCCBr)ccc1OCc1cnc([N+](=O)[O-])n1C` (stereo not drawn) [Compound 60] are 15 µM and 15 µM.
As for `Cn1c([N+](=O)[O-])nc(Br)c1-c1ccc(COP(=O)(NCCBr)NCCBr)cc1` [Compound 65], the 50% inhibitory concentration (IC50) came to 75 µM under setting [3] and 25 µM under setting [4].
On to `Cn1c(COP(=O)(NCCOS(C)(=O)=O)NCCOS(C)(=O)=O)cnc1[N+](=O)[O-]` [Compound 67], for which the IC50 was above 100 µM under setting [1] and 48 µM under setting [2].
The corresponding values for `Cn1c(COC(=O)NCCCOP(=O)(NCCBr)NCCBr)cnc1[N+](=O)[O-]` [Compound 68] are above 100 µM and at least 100 µM.
On the same counts, the results for `Cn1c(COC(=O)NCCCCOP(=O)(NCCBr)NCCBr)cnc1[N+](=O)[O-]` [Compound 69] are above 100 µM and 71 µM.
In the case of `CC(OP(=O)(NCCBr)NCCBr)c1ccc(OCc2ccc([N+](=O)[O-])o2)c([N+](=O)[O-])c1` (stereo not drawn) [Compound 71], the IC50 under setting [1] amounted to 0.1 µM and the IC50 under setting [2] worked out at 0.1 µM.
On to `C[C@H](CBr)NP(=O)(N[C@H](C)CBr)OCc1ccc([N+](=O)[O-])o1` [Compound 72], for which the 50% inhibitory concentration (IC50) runs as follows: under setting [1], 12 µM; under setting [2], 0.5 µM.
On the same counts, the results for `O=[N+]([O-])c1ccc(COP(=O)(NCCBr)NCCBr)cc1` [Compound 74] are above 100 µM and above 100 µM.
With `O=[N+]([O-])c1ccc(COP(=O)(NCCBr)NCCBr)c([N+](=O)[O-])c1` [Compound 75], the IC50 turned out to be 26 µM under setting [1] and 9 µM under setting [2].
Turning to `O=[N+]([O-])c1ncc(COP(=O)(NCCCl)NCCCl)n1C1CCCCC1` [Compound 76], the IC50 under setting [1] was above 100 µM and the half-maximal inhibitory concentration (IC50) under setting [2] amounted to 9 µM.
On the same counts, the results for `O=[N+]([O-])c1ncc(COP(=O)(NCCBr)NCCBr)n1C1CCCCC1` [Compound 77] are 5.5 µM and 1.6 µM.
The corresponding values for `O=[N+]([O-])c1ccc(COP(=O)(NCCBr)NCCBr)cc1F` [Compound 79] are 3.5 µM and 3.5 µM.
On the same counts, the results for `O=[N+]([O-])c1nccn1CCCOP(=O)(NCCBr)NCCBr` [Compound 80] are above 100 µM and above 100 µM.
Turning to `CCCn1c(COP(=O)(NCCCl)NCCCl)cnc1[N+](=O)[O-]` [Compound 83], the 50% inhibitory concentration (IC50) runs as follows: under setting [1], above 100 µM; under setting [2], 0.3 µM.
Consider `O=[N+]([O-])c1ccsc1COP(=O)(NCCBr)NCCBr` [Compound 86], for which the IC50 by setting is: under setting [3], 3 µM; under setting [4], 1.4 µM.
Regarding `CC(OP(=O)(NCCCl)NCCCl)c1ncc([N+](=O)[O-])n1C` (stereo not drawn) [Compound 87], the half-inhibitory concentration (IC50) is above 100 µM under setting [1] and 22 µM under setting [2].
As to `CC(OP(=O)(NCCCl)NCCCl)c1ccc([N+](=O)[O-])s1` (stereo not drawn) [Compound 89], the 50% inhibitory concentration (IC50) is, setting by setting: under setting [1], 3.7 µM; under setting [2], 0.33 µM.
In the case of `O=[N+]([O-])c1ncc(COP(=O)(NCCBr)NCCBr)n1CC(F)(F)F` [Compound 90], the half-inhibitory concentration (IC50) by setting is: under setting [1], 3.4 µM; under setting [2], 0.01 µM.
For `Cn1c(CSCCOP(=O)(NCCBr)NCCBr)cnc1[N+](=O)[O-]` [Compound 91], under setting [1], the IC50 is above 100 µM.
Take `Cn1c(CSCCCCOP(=O)(NCCBr)NCCBr)cnc1[N+](=O)[O-]` [Compound 92]: the IC50 runs as follows: under setting [1], above 100 µM; under setting [2], above 100 µM.
Consider `CC(OP(=O)(N[C@H](C)CCl)N[C@H](C)CCl)c1ccc([N+](=O)[O-])s1` (stereo partly drawn) [Compound 93], for which the IC50 under setting [3] was 3.8 µM and the IC50 under setting [4] worked out at 0.1 µM.
Take `O=[N+]([O-])c1sc(COP(=O)(NCCBr)NCCBr)cc1Br` [Compound 94]: the IC50 amounted to 2 µM under setting [1] and 0.3 µM under setting [2].
In the case of `O=[N+]([O-])c1sc(COP(=O)(NCCCl)NCCCl)cc1Br` [Compound 95], the concentration for half-maximal inhibition (IC50) under setting [1] was 2.7 µM.
Take `N#Cc1cc(COP(=O)(NCCCl)NCCCl)sc1[N+](=O)[O-]` [Compound 96]: the IC50 by setting is: under setting [3], 0.1 µM; under setting [4], 0.1 µM.
Take `CC(OP(=O)(NCCCl)NCCCl)c1ccc([N+](=O)[O-])o1` (stereo not drawn) [Compound 104]: the IC50 under setting [1] was 12 µM and the IC50 under setting [2] came to 0.4 µM.
On the same counts, the results for `CC(OP(=O)(NCCBr)NCCBr)c1ccc([N+](=O)[O-])o1` (stereo not drawn) [Compound 105] are 1 µM and below 0.1 µM.
For `O=[N+]([O-])c1ccc(COP(=O)(NCCOS(=O)(=O)c2ccc(Cl)cc2)NCCOS(=O)(=O)c2ccc(Cl)cc2)o1` [Compound 107], the IC50 is 2.8 µM (Homo sapiens, NCI-H460, 2 h, read-out: IC50 H460 Air) and 0.06 µM (Homo sapiens, NCI-H460, 2 h, read-out: IC50 H460 Anoxia).
In the case of `O=[N+]([O-])c1ccc(-c2ccc(OP3(=O)N(CCBr)CCN3CCBr)cc2)s1` [Compound 111], the IC50 reads like this: under setting [1], 100 µM; under setting [2], 50 µM.
On the same counts, the results for `Cn1c(COC(=O)NC(C)(C)COP2(=O)N(CCBr)CCN2CCBr)cnc1[N+](=O)[O-]` [Compound 112] are above 100 µM and 70 µM.
Consider `CC(C)(C#Cc1ccc([N+](=O)[O-])s1)COP(N)(=O)N(CCCl)CCCl` (stereo not drawn) [Compound 115], for which the half-inhibitory concentration (IC50) under setting [1] is 5 µM and the concentration for half-maximal inhibition (IC50) under setting [2] worked out at 0.5 µM.
On the same counts, the results for `Cc1cc(C(C)OP(N)(=O)N(CCCl)CCCl)sc1[N+](=O)[O-]` (stereo not drawn) [Compound 116] are 15 µM and 0.5 µM.
On the same counts, the results for `CC(C)(C#Cc1ccc([N+](=O)[O-])cc1)OP(N)(=O)N(CCCl)CCCl` (stereo not drawn) [Compound 117] are 70 µM and 8 µM.
The corresponding values for `O=[N+]([O-])c1ccc(COP(=O)(NCCCCCCCCNP(=O)(OCc2ccc([N+](=O)[O-])o2)N(CCCl)CCCl)N(CCCl)CCCl)o1` (stereo not drawn) [Compound 139] are 100 µM and 16 µM.
As for `O=[N+]([O-])c1ccc(COP(=O)(NCCOCCOCCNP(=O)(OCc2ccc([N+](=O)[O-])o2)N(CCCl)CCCl)N(CCCl)CCCl)o1` (stereo not drawn) [Compound 140], the IC50 amounted to 65 µM under setting [1] and 5 µM under setting [2].
The corresponding values for `Cn1c([N+](=O)[O-])cnc1COc1ccc(COP(N)(=O)N(CCCl)CCCl)cc1` (stereo not drawn) [Compound 142] are above 100 µM and above 40 µM.
On the same counts, the results for `O=[N+]([O-])c1ccc(COP(=O)(N(CCCl)CCCl)N(CCCl)CCCl)o1` [Compound 143] are 3.5 µM and 4.5 µM.
The corresponding values for `Cn1c(COP(=O)(OCc2cnc([N+](=O)[O-])n2C)N(CCCl)CCCl)cnc1[N+](=O)[O-]` [Compound 145] are above 100 µM and above 100 µM.
As to `Cn1c([N+](=O)[O-])cnc1/C=C/COP1(=O)N(CCCl)CCN1CCCl` [Compound 147], the half-maximal inhibitory concentration (IC50) was above 100 µM under setting [1] and above 100 µM under setting [2].
Consider `CC(=O)NP(=O)(OCc1cnc([N+](=O)[O-])n1C)N(CCCl)CCCl` (stereo not drawn) [Compound 149], for which the 50% inhibitory concentration (IC50) was above 100 µM under setting [1] and 50 µM under setting [2].
Regarding `CN(CCCl)P(=O)(OCc1ccc(OCc2cnc([N+](=O)[O-])n2C)c(F)c1)N(C)CCCl` [Compound 150], the IC50 under setting [1] amounted to 21 µM.
For `COc1cc2c(=O)n(CCN(C)P(=O)(OCc3ccc([N+](=O)[O-])o3)N(CCCl)CCCl)c3c4cc5c(cc4ncc3c2cc1OC)OCO5` (stereo not drawn) [Compound 154], the half-inhibitory concentration (IC50) runs as follows: under setting [1], 2 µM; under setting [2], 0.9 µM.
